# Experimental data reported in ChEMBL document CHEMBL4145625 (J Med Chem, 2018).
# Key:
# U-87 MG [1] = assay: Antitumor activity against Luc tagged human U87MG cells xenografted in BALB/c nude mouse glioblastoma orthotopic model assessed as tumor growth inhibition at 30 mg/kg, po administered daily for 5 days by MRI method relative to control; assay type: functional, U-87MG ATCC; conditions: 120 h, read-out: TGI
# NCI-H460 [2] = assay: Antitumor activity against human NCI-H460 cells xenografted in BALB/c nude mouse assessed as tumor growth inhibition at 24 mg/kg, ip administered once daily after 20 days relative to control; assay type: functional; conditions: 480 h, read-out: TGI
# NCI-H460 [3] = assay: Antitumor activity against human NCI-H460 cells xenografted in BALB/c nude mouse assessed as tumor growth inhibition at 24 mg/kg, ip administered once daily after 16 days relative to control; assay type: functional; conditions: 384 h, read-out: TGI
# Mus musculus [4] = assay: Toxicity in human NCI-H460 cells xenografted BALB/c nude mouse assessed as reduction in body weight at 24 mg/kg, ip administered once daily after 20 days; assay type: organism-based; conditions: in vivo, 480 h
# Mus musculus [5] = assay: Toxicity in human NCI-H460 cells xenografted BALB/c nude mouse assessed as reduction in body weight at 24 mg/kg, ip administered once daily after 16 days; assay type: organism-based; conditions: in vivo, 384 h
# NCI-H460 [6] = assay: cells; assay type: functional, cell-based; conditions: Homo sapiens, NCI-H460, 96 h
# Description: Cytotoxicity against human NCI-H460 cells after 96 hrs by MTT assay
# NCI-H460 [7] = assay: Antitumor activity against human NCI-H460 cells xenografted in BALB/c nude mouse assessed as tumor growth inhibition at 10 mg/kg, po administered once daily after 20 days relative to control; assay type: functional; conditions: 480 h, read-out: TGI
# Mus musculus [8] = assay: Toxicity in human NCI-H460 cells xenografted BALB/c nude mouse assessed as reduction in body weight at 10 mg/kg, po administered once daily after 20 days; assay type: organism-based; conditions: in vivo, 480 h
# [9] = biological target: Phosphatidylinositol 4,5-bisphosphate 3-kinase catalytic subunit beta isoform (Homo sapiens, UniProt P42338); assay: Inhibition of PI3Kbeta (unknown origin) using PIP2 as substrate by ADP-Glo assay
# [10] = biological target: Phosphatidylinositol 4,5-bisphosphate 3-kinase catalytic subunit gamma isoform (Homo sapiens, UniProt P48736); assay: Inhibition of PI3Kgamma (unknown origin) using PIP2 as substrate by ADP-Glo assay
# [11] = biological target: T1, Phosphatidylinositol 4,5-bisphosphate 3-kinase catalytic subunit delta isoform (Homo sapiens, UniProt O00329); assay: Inhibition of PI3Kdelta (unknown origin) using PIP2 as substrate by ADP-Glo assay
# T1 sequence (O00329 whole entry): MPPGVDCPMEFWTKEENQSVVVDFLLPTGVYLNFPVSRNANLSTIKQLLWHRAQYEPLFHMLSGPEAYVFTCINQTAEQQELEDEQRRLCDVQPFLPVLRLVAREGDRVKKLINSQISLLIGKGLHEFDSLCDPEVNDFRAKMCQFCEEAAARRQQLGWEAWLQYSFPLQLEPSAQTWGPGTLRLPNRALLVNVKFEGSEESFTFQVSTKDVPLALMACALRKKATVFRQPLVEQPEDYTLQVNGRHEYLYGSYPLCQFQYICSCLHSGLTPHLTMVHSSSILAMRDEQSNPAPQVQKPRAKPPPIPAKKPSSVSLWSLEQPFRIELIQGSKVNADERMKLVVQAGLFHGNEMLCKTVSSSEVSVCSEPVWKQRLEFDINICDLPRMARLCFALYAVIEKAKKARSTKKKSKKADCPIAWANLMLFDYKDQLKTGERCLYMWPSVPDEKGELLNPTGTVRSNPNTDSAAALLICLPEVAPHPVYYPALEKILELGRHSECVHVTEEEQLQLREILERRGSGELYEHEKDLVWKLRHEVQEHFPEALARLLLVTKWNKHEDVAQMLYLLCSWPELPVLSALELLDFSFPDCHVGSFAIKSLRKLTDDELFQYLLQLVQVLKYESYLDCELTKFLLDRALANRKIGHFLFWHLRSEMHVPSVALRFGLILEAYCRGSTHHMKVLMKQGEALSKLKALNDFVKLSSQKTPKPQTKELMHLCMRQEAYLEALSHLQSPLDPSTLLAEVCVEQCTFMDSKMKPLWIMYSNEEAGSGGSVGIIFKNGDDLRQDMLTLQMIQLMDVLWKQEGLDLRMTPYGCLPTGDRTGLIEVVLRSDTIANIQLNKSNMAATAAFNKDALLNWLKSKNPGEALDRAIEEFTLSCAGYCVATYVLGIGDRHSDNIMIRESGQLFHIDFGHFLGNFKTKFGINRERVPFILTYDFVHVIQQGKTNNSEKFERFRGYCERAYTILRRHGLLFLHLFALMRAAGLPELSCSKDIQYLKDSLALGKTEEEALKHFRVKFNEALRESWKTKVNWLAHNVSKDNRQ
# [12] = biological target: RAC-alpha serine/threonine-protein kinase (Homo sapiens, UniProt P31749); assay: Inhibition of AKT1 (unknown origin) using FAM-labeled peptide as substrate by mobility shift assay
# [13] = biological target: Serine/threonine-protein kinase mTOR (Homo sapiens, UniProt P42345); assay: Inhibition of mTOR (unknown origin) using ULight-4E-BP1 peptide as substrate after 30 mins by Lance Ultra assay
# A549 = assay: cells; assay type: functional, cell-based; conditions: Homo sapiens, A549, 96 h
# Description: Cytotoxicity against human A549 cells after 96 hrs by MTT assay
# MDA-MB-231 = assay: cells; assay type: functional, cell-based; conditions: Homo sapiens, MDA-MB-231, 96 h
# Description: Cytotoxicity against human MDA-MB-231 cells after 96 hrs by MTT assay
# HGC-27 [14] = assay: cells; assay type: functional, cell-based; conditions: Homo sapiens, HGC-27, 96 h
# Description: Cytotoxicity against human HGC27 cells after 96 hrs by MTT assay
# DU-145 = assay: cells; assay type: functional, cell-based; conditions: Homo sapiens, DU-145, 96 h
# Description: Cytotoxicity against human DU145 cells after 96 hrs by MTT assay
# PC-3 = assay: cells; assay type: functional, cell-based; conditions: Homo sapiens, PC-3, 96 h
# Description: Cytotoxicity against human PC3 cells after 96 hrs by MTT assay
# U-87 MG [15] = assay: cells; assay type: functional, cell-based, U-87MG ATCC; conditions: Homo sapiens, 96 h
# Description: Cytotoxicity against human U87MG cells after 96 hrs by MTT assay
# SH-SY5Y = assay: cells; assay type: functional, cell-based; conditions: Homo sapiens, 96 h
# Description: Cytotoxicity against human SH-SY5Y cells after 96 hrs by MTT assay
# U-251 = assay: cells; assay type: functional, cell-based; conditions: Homo sapiens, U-251, 96 h
# Description: Cytotoxicity against human U251 cells after 96 hrs by MTT assay
# T98G = assay: cells; assay type: functional, cell-based; conditions: Homo sapiens, 96 h
# Description: Cytotoxicity against human T98G cells after 96 hrs by MTT assay
# MGC-803 [16] = assay: Antitumor activity against human MGC803 cells xenografted in BALB/c nude mouse assessed as tumor growth inhibition at 5 mg/kg, po administered once daily for 18 days measured at post last dose relative to control; assay type: functional; conditions: MGC-803, po, 432 h, read-out: TGI
# MGC-803 [17] = assay: Antitumor activity against human MGC803 cells xenografted in BALB/c nude mouse assessed as tumor growth inhibition at 10 mg/kg, po administered once daily for 18 days measured at post last dose relative to control; assay type: functional; conditions: MGC-803, po, 432 h, read-out: TGI
# HGC-27 [18] = assay: Antitumor activity against human HGC27 cells xenografted in BALB/c nude mouse assessed as tumor growth inhibition at […], po administered once daily for 15 days measured at post last dose relative to control; assay type: functional; conditions: HGC-27, po, 360 h, read-out: TGI
# Mus musculus [19] = assay: In vivo inhibition of PI3Kalpha in po dosed athymic BALB/c nude mouse xenografted with human NCI-H460 cells administered as single dose via gavage after 2 to 24 hrs; assay type: functional, organism-based
# NCI-H460 [20] = assay: Antitumor activity against human NCI-H460 cells xenografted in po dosed athymic BALB/c nude mouse administered as single dose via gavage after 2 to 24 hrs; assay type: functional, organism-based
# [21] = mouse, in vivo, po, 30 mg/kg
# NCI-H209 [22] = conditions: Homo sapiens
# Description: Antitumor activity against human NCI-H209 cells xenografted in po dosed BALB/c nude mouse assessed as tumor growth inhibition administered once daily after 19 consecutive days
# MGC-803 [23] = conditions: Homo sapiens
# Description: Antitumor activity against human MGC803 cells xenografted in po dosed BALB/c nude mouse assessed as tumor growth inhibition administered once daily measured at post last dose
# in vivo [24] = conditions: ICR, mouse, in vivo, iv, 3 mg/kg
# in vivo [25] = conditions: ICR, mouse, in vivo, po, 30 mg/kg
# in vivo [26] = conditions: ICR, mouse, in vivo, iv, 3 mg/kg; remark: listed apart in the source
# in vivo [27] = conditions: ICR, mouse, in vivo, po, 30 mg/kg; remark: listed apart in the source
# in vivo [28] = conditions: ICR, mouse, in vivo, iv, 3 mg/kg; remark: listed apart in the source
# in vivo [29] = conditions: ICR, mouse, in vivo, po, 30 mg/kg; remark: listed apart in the source
# in vivo [30] = conditions: ICR, mouse, in vivo, iv, 3 mg/kg; remark: listed apart in the source
# in vivo [31] = conditions: ICR, mouse, in vivo, po, 30 mg/kg; remark: listed apart in the source
# in vivo [32] = conditions: ICR, mouse, in vivo, iv, 3 mg/kg; remark: listed apart in the source
# Description: Half life in ICR mouse plasma at 3 mg/kg, iv by LC/MS/MS analysis
# in vivo [33] = conditions: ICR, mouse, in vivo, po, 30 mg/kg; remark: listed apart in the source
# Description: Half life in ICR mouse plasma at 30 mg/kg, po by LC/MS/MS analysis
# in vivo [34] = conditions: ICR, mouse, in vivo, iv, 3 mg/kg; remark: listed apart in the source
# Description: Volume of distribution at steady state in ICR mouse plasma at 3 mg/kg, iv by LC/MS/MS analysis
# in vivo [35] = conditions: ICR, mouse, in vivo, iv, 3 mg/kg; remark: listed apart in the source
# Description: Clearance in ICR mouse plasma at 3 mg/kg, iv by LC/MS/MS analysis
# in vivo [36] = conditions: ICR, mouse, in vivo, po, 30 mg/kg; remark: listed apart in the source
# in vivo [37] = conditions: ICR, mouse, in vivo, po, 30 mg/kg; remark: listed apart in the source
# in vivo [38] = conditions: athymic BALB/c nude, mouse, in vivo, po, 10 mg/kg
# in vivo [39] = conditions: ICR, mouse, po
# Description: Toxicity in po dosed ICR mouse administered as single dose via oral gavage measured after 14 days
# in vitro [40] = conditions: human, plasma
# Description: Protein binding in human plasma at 2 uM after 6 hrs by LC-MS/MS analysis
# in vitro [41] = conditions: ICR, mouse, plasma
# Description: Protein binding in ICR mouse plasma at 2 uM after 6 hrs by LC-MS/MS analysis
# NCI-H460 [42] = assay: animal or person; conditions: Mus musculus, NCI-H460, po, 480 h, read-out: TGI
# Description: Antitumor activity against human NCI-H460 cells xenografted in BALB/c nude mouse assessed as tumor growth inhibition at 5 mg/kg, po administered once daily after 20 days relative to control
# NCI-H209 [43] = assay: animal or person; conditions: Mus musculus, NCI-H209, po, read-out: TGI
# NCI-H209 [44] = assay: animal or person; conditions: Mus musculus, NCI-H209, po, read-out: TGI; remark: listed apart in the source
# Description: Antitumor activity against human NCI-H209 cells xenografted in BALB/c nude mouse assessed as tumor growth inhibition at 5 mg/kg, po administered once daily after 19 consecutive days relative to control
# MGC-803 [45] = assay: animal or person; conditions: Mus musculus, MGC-803, po, 432 h, read-out: TGI
# RAC-alpha serine/threonine-protein kinase, sequence (P31749 whole entry): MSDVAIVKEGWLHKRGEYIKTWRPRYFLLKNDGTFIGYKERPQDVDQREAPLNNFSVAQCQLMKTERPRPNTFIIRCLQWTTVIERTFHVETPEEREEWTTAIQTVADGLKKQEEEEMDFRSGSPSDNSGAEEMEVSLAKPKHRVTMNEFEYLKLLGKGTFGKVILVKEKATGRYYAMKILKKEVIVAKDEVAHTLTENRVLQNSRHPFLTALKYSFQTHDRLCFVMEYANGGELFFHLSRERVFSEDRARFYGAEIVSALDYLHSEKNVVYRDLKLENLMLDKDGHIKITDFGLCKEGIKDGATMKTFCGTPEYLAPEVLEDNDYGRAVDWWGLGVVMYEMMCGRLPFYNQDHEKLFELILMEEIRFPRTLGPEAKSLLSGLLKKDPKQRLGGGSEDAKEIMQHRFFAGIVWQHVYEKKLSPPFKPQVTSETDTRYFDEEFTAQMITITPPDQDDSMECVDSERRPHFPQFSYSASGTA
# Phosphatidylinositol 4,5-bisphosphate 3-kinase catalytic subunit beta isoform, sequence (P42338 whole entry, canonical isoform): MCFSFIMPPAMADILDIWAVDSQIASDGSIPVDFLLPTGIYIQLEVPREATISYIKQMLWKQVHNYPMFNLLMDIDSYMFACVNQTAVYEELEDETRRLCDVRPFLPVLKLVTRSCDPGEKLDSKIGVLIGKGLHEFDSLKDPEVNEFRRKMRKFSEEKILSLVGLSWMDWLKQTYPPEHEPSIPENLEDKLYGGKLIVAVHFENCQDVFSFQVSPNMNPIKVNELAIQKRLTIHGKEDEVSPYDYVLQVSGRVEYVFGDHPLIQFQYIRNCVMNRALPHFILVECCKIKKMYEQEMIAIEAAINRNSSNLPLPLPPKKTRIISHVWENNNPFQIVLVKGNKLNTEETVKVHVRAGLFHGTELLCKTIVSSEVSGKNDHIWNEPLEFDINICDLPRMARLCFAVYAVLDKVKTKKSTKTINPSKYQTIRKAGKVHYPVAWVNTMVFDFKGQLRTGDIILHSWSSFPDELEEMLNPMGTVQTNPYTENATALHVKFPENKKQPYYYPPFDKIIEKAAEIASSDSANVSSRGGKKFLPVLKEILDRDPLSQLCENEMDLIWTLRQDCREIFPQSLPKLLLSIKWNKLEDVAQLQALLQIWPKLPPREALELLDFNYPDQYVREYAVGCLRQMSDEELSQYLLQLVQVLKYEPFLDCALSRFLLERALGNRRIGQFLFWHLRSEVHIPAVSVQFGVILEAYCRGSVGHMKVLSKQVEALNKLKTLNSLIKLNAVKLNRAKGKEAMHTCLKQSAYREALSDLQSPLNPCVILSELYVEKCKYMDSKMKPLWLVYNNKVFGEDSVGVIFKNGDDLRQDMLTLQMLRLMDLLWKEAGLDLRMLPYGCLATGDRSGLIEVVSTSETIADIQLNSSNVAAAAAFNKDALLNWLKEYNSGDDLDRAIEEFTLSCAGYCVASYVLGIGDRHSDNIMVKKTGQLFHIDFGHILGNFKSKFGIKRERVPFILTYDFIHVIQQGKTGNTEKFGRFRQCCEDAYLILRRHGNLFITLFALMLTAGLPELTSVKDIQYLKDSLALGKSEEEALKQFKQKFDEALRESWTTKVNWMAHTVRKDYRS
# Phosphatidylinositol 4,5-bisphosphate 3-kinase catalytic subunit gamma isoform, sequence (P48736 whole entry, canonical isoform): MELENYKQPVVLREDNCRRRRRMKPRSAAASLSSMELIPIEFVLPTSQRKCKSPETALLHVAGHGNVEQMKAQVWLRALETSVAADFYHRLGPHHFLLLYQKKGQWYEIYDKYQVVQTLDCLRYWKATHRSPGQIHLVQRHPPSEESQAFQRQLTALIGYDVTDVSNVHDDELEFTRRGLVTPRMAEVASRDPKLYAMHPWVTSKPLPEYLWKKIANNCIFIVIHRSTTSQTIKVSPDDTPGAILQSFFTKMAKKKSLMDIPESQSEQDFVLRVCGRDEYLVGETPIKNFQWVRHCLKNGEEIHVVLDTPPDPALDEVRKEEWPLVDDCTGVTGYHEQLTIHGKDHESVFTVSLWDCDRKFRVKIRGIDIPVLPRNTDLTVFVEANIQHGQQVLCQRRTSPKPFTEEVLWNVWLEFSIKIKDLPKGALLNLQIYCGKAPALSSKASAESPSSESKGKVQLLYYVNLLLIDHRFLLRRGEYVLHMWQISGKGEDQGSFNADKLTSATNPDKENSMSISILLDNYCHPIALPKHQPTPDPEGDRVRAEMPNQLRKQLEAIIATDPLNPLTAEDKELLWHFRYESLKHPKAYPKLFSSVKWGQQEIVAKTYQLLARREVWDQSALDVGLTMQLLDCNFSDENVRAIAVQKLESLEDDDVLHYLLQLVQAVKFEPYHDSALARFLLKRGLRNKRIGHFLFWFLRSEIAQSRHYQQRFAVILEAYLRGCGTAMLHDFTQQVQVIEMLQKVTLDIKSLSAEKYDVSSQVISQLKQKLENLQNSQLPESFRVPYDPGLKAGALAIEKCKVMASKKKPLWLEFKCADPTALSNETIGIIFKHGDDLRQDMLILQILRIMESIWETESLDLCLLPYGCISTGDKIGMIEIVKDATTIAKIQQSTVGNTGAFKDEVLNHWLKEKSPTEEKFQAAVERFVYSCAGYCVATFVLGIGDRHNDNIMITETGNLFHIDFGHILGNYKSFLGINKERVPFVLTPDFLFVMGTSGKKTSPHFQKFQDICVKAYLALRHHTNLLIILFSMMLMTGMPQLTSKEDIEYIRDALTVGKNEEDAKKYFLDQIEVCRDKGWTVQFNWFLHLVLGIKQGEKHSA
compound,measurement,setting,value
COc1ccc(CN2CCNCC2)c(OC)c1OC [TRIMETAZIDINE],inhibition in vivo at 30 mg/kg,U-87 MG [1],98.1%
CC(=O)O[C@H]1C(=O)[C@@]2(C)[C@H]([C@H](OC(=O)c3ccccc3)[C@]3(O)C[C@H](OC(=O)[C@H](O)[C@@H](NC(=O)c4ccccc4)c4ccccc4)C(C)=C1C3(C)C)[C@]1(OC(C)=O)CO[C@@H]1C[C@@H]2O [PACLITAXEL],inhibition in vivo at 24 mg/kg,NCI-H460 [2],85.9%
same,inhibition in vivo at 24 mg/kg,NCI-H460 [3],75.4%
same,Activity,Mus musculus [4],Toxic
same,Activity,Mus musculus [5],Toxic
COc1ccc(-c2cc3c(C)nc(N)nc3n([C@H]3CC[C@H](OCCO)CC3)c2=O)cn1 [PF-04691502],IC50,NCI-H460 [6],200 nM
same,inhibition in vivo at 10 mg/kg,NCI-H460 [7],67.4%
same,Activity,Mus musculus [8],Toxic
COc1ncc(-c2cc(OC3CCOCC3)c3nc(N)nc(C)c3c2)cc1NS(=O)(=O)c1ccc(F)cc1F,IC50,[9],0.53 nM
same,IC50,[10],1.3 nM
same,IC50,[11],0.18 nM
same,IC50,[12],> 10000 nM
same,IC50,[13],7.9 nM
same,IC50,A549,53 nM
same,IC50,MDA-MB-231,180 nM
same,IC50,HGC-27 [14],25 nM
same,IC50,DU-145,1700 nM
same,IC50,PC-3,150 nM
same,IC50,U-87 MG [15],120 nM
same,IC50,SH-SY5Y,280 nM
same,IC50,U-251,320 nM
same,IC50,T98G,420 nM
same,inhibition in vivo at 10 mg/kg,NCI-H460 [7],79.8%
same,inhibition in vivo at 5 mg/kg,MGC-803 [16],77.2%
same,inhibition in vivo at 10 mg/kg,MGC-803 [17],77.7%
same,inhibition in vivo at […],HGC-27 [18],92.2%
same,IC90,Mus musculus [19],0.00081 µg/mL
same,IC50,NCI-H460 [20],0.016 µg/mL
same,AUCt,[21],234 ng·h/g
same,TGI,NCI-H209 [22],Dose-dependent effect
same,TGI,MGC-803 [23],Dose-dependent effect
same,Tmax,in vivo [24],1.8 min
same,Tmax,in vivo [25],30 min
same,Cmax,in vivo [26],10300 ng/mL
same,Cmax,in vivo [27],4290 ng/mL
same,AUC(0-t),in vivo [28],7190 ng·h/mL
same,AUC(0-t),in vivo [29],23900 ng·h/mL
same,AUC(0-inf),in vivo [30],7240 ng·h/mL
same,AUC(0-inf),in vivo [31],36200 ng·h/mL
same,half-life,in vivo [32],88.8 min
same,half-life,in vivo [33],666 min
same,Vd,in vivo [34],0.853 L/kg
same,clearance,in vivo [35],7.58 mL/min/kg
same,bioavailability,in vivo [36],33.2%
same,Cmax,in vivo [37],93 ng/g
same,AUC(0-t) at 24 h,in vivo [38],11800 ng·h/mL
same,MTD at 336 h,in vivo [39],> 40 mg/kg
same,"fraction unbound at 6 h, 2 µM",in vitro [40],0.0422
same,"fraction unbound at 6 h, 2 µM",in vitro [41],0.0823
same,inhibition in vivo at 5 mg/kg,NCI-H460 [42],72.5%
same,inhibition in vivo at […],NCI-H209 [43],80.9%
same,inhibition in vivo at 5 mg/kg,NCI-H209 [44],91.7%
same,inhibition in vivo at […],MGC-803 [45],68.2%
